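Results reflect a 48-hour exposure of cells in 96-well plates to compound at five concentrations. The concentration for 50% growth inhibition is given as GI50.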 Active and inactive are the calls of the source. Cut-off read from the data, not from the text of the source: active = GI50 up to about 1.1 µM and inactive = higher.
Assays:
Assay in all cases: DTP human tumour cell line panel, 48 h
[1] = tested on: DMS-114
[2] = tested on: SK-OV-3
[3] = tested on: DMS-273
[4] = tested on: XF498
[5] = tested on: LOX IMVI
[6] = tested on: M19-MEL
[7] = tested on: A498
[8] = tested on: DLD-1
[9] = tested on: HT-29
[10] = tested on: RXF 393
[11] = tested on: KM-20L2
[12] = tested on: MCF7
[13] = tested on: HL-60
[14] = tested on: SNB-78
[15] = tested on: SR
[16] = tested on: DU-145
[17] = tested on: PC-3
[18] = tested on: ACHN
[19] = tested on: TK-10
[20] = tested on: M14

Row | Compound | GI50 [1] | GI50 [2] | GI50 [3] | GI50 [4] | GI50 [5] | GI50 [6] | GI50 [7] | GI50 [8] | GI50 [9] | GI50 [10] | GI50 [11] | GI50 [12] | GI50 [13] | GI50 [14] | GI50 [15] | GI50 [16] | GI50 [17] | GI50 [18] | GI50 [19] | GI50 [20]
1 | C[n+]1ccc(Nc2ccc(NC(=O)c3ccc(Nc4cc[n+](C)c5ccc([N+](=O)[O-])cc45)cc3[N+](=O)[O-])cc2)cc1 | 1.05 µM (active) | 60.3 µM (inactive) | 34.9 µM (inactive) | > 41.3 µM (inactive) | > 68.2 µM (inactive) | 20 µM (inactive) | 36.7 µM (inactive) | > 92 µM (inactive) | – | – | – | – | – | – | – | – | – | – | – | –
2 | CCN(CC)CCCOC(=O)/C=C/c1c(C)[nH]c(=O)[nH]c1=O | > 625 µM (inactive) | > 625 µM (inactive) | > 625 µM (inactive) | > 625 µM (inactive) | > 625 µM (inactive) | > 625 µM (inactive) | > 95.1 µM (inactive) | > 625 µM (inactive) | > 394 µM (inactive) | > 99.1 µM (inactive) | > 625 µM (inactive) | > 625 µM (inactive) | > 625 µM (inactive) | 542 µM (inactive) | – | – | – | – | – | –
3 | Cc1cc(C)c2c(c1)CC1(Cc3c(C)ccc(C)c3C1=O)C2=O (stereo not drawn) | – | – | – | – | – | – | > 100 µM (inactive) | – | – | > 100 µM (inactive) | – | > 100 µM (inactive) | > 100 µM (inactive) | – | > 100 µM (inactive) | > 100 µM (inactive) | > 100 µM (inactive) | > 100 µM (inactive) | > 100 µM (inactive) | > 100 µM (inactive)
4 | CNC(=S)N/N=C(/C)CCC/C(C)=N/NC(=S)NC | – | > 100 µM (inactive) | – | – | 1.8 µM (inactive) | – | > 75 µM (inactive) | – | 0.499 µM (active) | – | – | 0.151 µM (active) | > 100 µM (inactive) | – | 3.89 µM (inactive) | > 68.5 µM (inactive) | 3.71 µM (inactive) | > 80.7 µM (inactive) | > 100 µM (inactive) | > 100 µM (inactive)
5 | CC(C)(CO)NC(=O)c1cccc(C(=O)NC(C)(C)CO)c1Br | – | – | – | – | > 100 µM (inactive) | – | – | – | > 100 µM (inactive) | 7.83 µM (inactive) | – | > 100 µM (inactive) | > 100 µM (inactive) | – | > 100 µM (inactive) | > 100 µM (inactive) | > 100 µM (inactive) | > 100 µM (inactive) | > 100 µM (inactive) | > 100 µM (inactive)
6 | CC1(C)O[C@H]2OC(CO)C(OS(C)(=O)=O)[C@H]2O1 (stereo partly drawn) | – | – | – | – | > 100 µM (inactive) | – | > 100 µM (inactive) | – | > 100 µM (inactive) | – | – | > 100 µM (inactive) | > 100 µM (inactive) | – | – | > 100 µM (inactive) | > 100 µM (inactive) | > 100 µM (inactive) | > 100 µM (inactive) | > 100 µM (inactive)
7 | CSc1nc(NC2OC(CO)C(O)C(O)C2O)c(N)c(=O)n1C (stereo not drawn) | > 100 µM (inactive) | > 100 µM (inactive) | > 100 µM (inactive) | > 100 µM (inactive) | > 100 µM (inactive) | > 100 µM (inactive) | > 100 µM (inactive) | > 100 µM (inactive) | > 100 µM (inactive) | > 100 µM (inactive) | > 100 µM (inactive) | > 100 µM (inactive) | > 100 µM (inactive) | > 100 µM (inactive) | – | – | – | – | – | –
8 | CC(=O)C(=O)NC1/C=C(C)\C=C/C(O)C/C=C(C)\C=C/C(O)CC2OC(=O)C1(C)C(=O)C2C (stereo not drawn) | > 100 µM (inactive) | > 100 µM (inactive) | > 100 µM (inactive) | – | > 100 µM (inactive) | > 100 µM (inactive) | > 100 µM (inactive) | > 100 µM (inactive) | > 100 µM (inactive) | > 100 µM (inactive) | > 100 µM (inactive) | > 100 µM (inactive) | – | > 100 µM (inactive) | – | – | – | – | – | –
9 | CN(C)CCCNC(=O)c1c(-c2cccnc2)cnc2ccccc12 | – | > 100 µM (inactive) | – | – | – | – | – | – | > 100 µM (inactive) | > 100 µM (inactive) | – | > 100 µM (inactive) | > 100 µM (inactive) | – | > 100 µM (inactive) | > 100 µM (inactive) | > 100 µM (inactive) | > 100 µM (inactive) | > 100 µM (inactive) | > 100 µM (inactive)
10 | C=C1CC(OC)(C(OC)C(=O)N(C)[C@H]2OCO[C@H]3C2O[C@H](C[C@@H](COC)OC)C(C)(C)C3OC)O[C@H](C)[C@@H]1C (stereo partly drawn) | 11.2 µM (inactive) | – | 6.9 µM (inactive) | 7.91 µM (inactive) | 5.68 µM (inactive) | – | 12 µM (inactive) | 18.3 µM (inactive) | 5.77 µM (inactive) | 10.6 µM (inactive) | 13.3 µM (inactive) | 5.3 µM (inactive) | 15.9 µM (inactive) | 12.2 µM (inactive) | – | – | – | – | – | –
11 | NCCCn1c(Cl)nc2ccccc21 | – | > 100 µM (inactive) | – | – | > 100 µM (inactive) | – | > 100 µM (inactive) | – | > 100 µM (inactive) | > 100 µM (inactive) | – | > 100 µM (inactive) | > 100 µM (inactive) | – | > 100 µM (inactive) | > 100 µM (inactive) | > 100 µM (inactive) | > 100 µM (inactive) | – | > 100 µM (inactive)
12 | O=S(=O)(CCBr)CCBr | 2.18 µM (inactive) | 19.3 µM (inactive) | 4.59 µM (inactive) | < 0.01 µM (active) | 7.67 µM (inactive) | 2.83 µM (inactive) | 6.3 µM (inactive) | 2.86 µM (inactive) | 5.94 µM (inactive) | 2.17 µM (inactive) | 11.1 µM (inactive) | 4.91 µM (inactive) | 2.59 µM (inactive) | – | – | – | – | – | – | –
13 | N#CCCN(CCC#N)c1ccc(/C=C2\N=C(c3cc([N+](=O)[O-])ccc3Cl)N(S(=O)(=O)c3ccccc3)C2=O)cc1 | > 100 µM (inactive) | > 100 µM (inactive) | > 100 µM (inactive) | > 100 µM (inactive) | > 100 µM (inactive) | > 100 µM (inactive) | – | > 100 µM (inactive) | – | > 100 µM (inactive) | > 100 µM (inactive) | – | – | > 100 µM (inactive) | > 100 µM (inactive) | – | – | > 100 µM (inactive) | > 100 µM (inactive) | –
14 | CSC(=S)N(C)c1nc(N(C)C)s[s+]1 | > 100 µM (inactive) | > 100 µM (inactive) | > 100 µM (inactive) | > 100 µM (inactive) | – | > 100 µM (inactive) | 44.4 µM (inactive) | > 100 µM (inactive) | > 100 µM (inactive) | > 100 µM (inactive) | > 100 µM (inactive) | – | 65.2 µM (inactive) | > 100 µM (inactive) | > 100 µM (inactive) | – | – | > 100 µM (inactive) | > 100 µM (inactive) | > 100 µM (inactive)

Reference: ChEMBL document CHEMBL1201862, “PubChem BioAssay data set” (2004)
